Experimental data as given in ChEMBL document CHEMBL3046301, “A study on the genotoxic activities of some new benzoxazoles” (Med Chem Res, 2007).
In brackets after ≈: the same amount, converted by molar mass.

Experiments:
[1] = Ratio of CR50 for wild type Bacillus subtilis H17 to CR50 for recombination-deficient Bacillus subtilis M45; assay type: ADME, organism-based
[2] = test system: Bacillus subtilis; test: Genotoxicity in recombination-deficient Bacillus subtilis M45 assessed as growth inhibition; assay type: toxicity, organism-based; conditions: in vivo
[3] = test system: Bacillus subtilis; test: Genotoxicity in wild type Bacillus subtilis H17 assessed as growth inhibition; assay type: toxicity, organism-based; conditions: in vivo

SMILES | selectivity ratio [1] | MIC [2] [µg/mL] | MIC [3] [µg/mL]
O=[N+]([O-])c1cc2oc(C3CCCCC3)nc2cc1Cl | 1.25 | 500 | 500 (≈ 1780 µM)
CCOc1ccc(Cc2nc3cc([N+](=O)[O-])ccc3o2)cc1 | 1.27 | 500 | 500 (≈ 1680 µM)
Nc1ccc(-c2nc3cc(Cl)ccc3o2)cc1 | 1 | 2000 | 2000 (≈ 8170 µM)
Cc1ccc2[nH]c(Cc3ccc(Br)cc3)nc2c1 | 0.49 | 125 | 30 (≈ 99.6 µM)
Clc1ccc2[nH]c(CC3CCCCC3)nc2c1 | 0.93 | 500 | 1000 (≈ 4020 µM)
O=C(Nc1ccc2oc(-c3ccccc3)nc2c1)c1ccc(F)cc1 | 1.6 | 500 | 1000 (≈ 3010 µM)
CCc1ccc(-c2nc3cc(NC(=O)Cc4ccc(Br)cc4)ccc3o2)cc1 | 0.95 | 500 | 500 (≈ 1150 µM)
Cc1ccc2nc(COc3ccccc3)oc2c1 | 0.93 | 1000 | 1000 (≈ 4180 µM)
Clc1ccc(OCc2nc3cc(Cl)ccc3o2)cc1 | 1 | 500 | 500 (≈ 1700 µM)
Clc1ccc2oc(Cc3ccc(Br)cc3)nc2c1 | 1.05 | 1000 | 1000 (≈ 3100 µM)
O=C(Cc1ccc(F)cc1)Nc1ccc2oc(Cc3ccccc3)nc2c1 | 0.58 | 500 | 500 (≈ 1390 µM)
O=[N+]([O-])c1ccc2oc(-c3ccccc3)nc2c1 | 1.07 | 500 | 500 (≈ 2080 µM)
CNc1ccc(-c2nc3ccccc3o2)cc1 | 1.5 | 500 | 1000 (≈ 4460 µM)
Nc1ccc2oc(-c3ccc(Br)cc3)nc2c1 | 1.05 | 1000 | 1000 (≈ 3460 µM)
Cc1ccc(Cc2nc3cc(N)ccc3o2)cc1 | 1.74 | 500 | 500 (≈ 2100 µM)
Nc1ccc2oc(Cc3ccc(F)cc3)nc2c1 | 1.25 | 500 | 500 (≈ 2060 µM)
Cc1ccc2nc(-c3ccccc3Cl)oc2c1 | 1.85 | 60 | 125 (≈ 513 µM)
Cc1ccc2oc(-c3ccccc3[N+](=O)[O-])nc2c1 | 0.96 | 500 | 500 (≈ 1970 µM)
O=[N+]([O-])c1cc[n+]([O-])c2ccccc12 [4-NITROQUINOLINE-1-OXIDE] | 0.69 | 60 | 1000 (≈ 5260 µM)
